Earlier results in patent publication US20230349886A1, “SYSTEMS AND METHODS FOR PREDICTING CARDIOTOXICITY OF MOLECULAR PARAMETERS OF A COMPOUND BASED ON MACHINE LEARNING ALGORITHMS” (UTI Limited Partnership, priority 2015, published 2023).
Like-named read-outs stand apart in the source and are kept apart here.

Experiments:
Cav1.2 = Cav1.2 (Homo sapiens, UniProt Q13936); for CAV1.2 max inhib: test concentration or dose not given here
Nav1.5 = Nav1.5 (Homo sapiens, UniProt Q14524); settings: Brown dataset; for IC50: read-out: NAV1.5 IC50; for NAV1.5 max inhib: test concentration or dose not given here
[1] = Brown dataset; flag given as 1 or 0
hERG = hERG (Homo sapiens, UniProt Q12809); for HERG maxInhib: test concentration or dose not given here
[2] = read-out: CAV1.2 IC50, Brown dataset
[3] = Table 11, calculated from HERG-IC50 of the Kramer et al. 2013 data
[4] = read-out: HERG IC50, Brown dataset

Sequence of Nav1.5 (Q14524 1-2016 isoform Q14524-4 V215L/S234P): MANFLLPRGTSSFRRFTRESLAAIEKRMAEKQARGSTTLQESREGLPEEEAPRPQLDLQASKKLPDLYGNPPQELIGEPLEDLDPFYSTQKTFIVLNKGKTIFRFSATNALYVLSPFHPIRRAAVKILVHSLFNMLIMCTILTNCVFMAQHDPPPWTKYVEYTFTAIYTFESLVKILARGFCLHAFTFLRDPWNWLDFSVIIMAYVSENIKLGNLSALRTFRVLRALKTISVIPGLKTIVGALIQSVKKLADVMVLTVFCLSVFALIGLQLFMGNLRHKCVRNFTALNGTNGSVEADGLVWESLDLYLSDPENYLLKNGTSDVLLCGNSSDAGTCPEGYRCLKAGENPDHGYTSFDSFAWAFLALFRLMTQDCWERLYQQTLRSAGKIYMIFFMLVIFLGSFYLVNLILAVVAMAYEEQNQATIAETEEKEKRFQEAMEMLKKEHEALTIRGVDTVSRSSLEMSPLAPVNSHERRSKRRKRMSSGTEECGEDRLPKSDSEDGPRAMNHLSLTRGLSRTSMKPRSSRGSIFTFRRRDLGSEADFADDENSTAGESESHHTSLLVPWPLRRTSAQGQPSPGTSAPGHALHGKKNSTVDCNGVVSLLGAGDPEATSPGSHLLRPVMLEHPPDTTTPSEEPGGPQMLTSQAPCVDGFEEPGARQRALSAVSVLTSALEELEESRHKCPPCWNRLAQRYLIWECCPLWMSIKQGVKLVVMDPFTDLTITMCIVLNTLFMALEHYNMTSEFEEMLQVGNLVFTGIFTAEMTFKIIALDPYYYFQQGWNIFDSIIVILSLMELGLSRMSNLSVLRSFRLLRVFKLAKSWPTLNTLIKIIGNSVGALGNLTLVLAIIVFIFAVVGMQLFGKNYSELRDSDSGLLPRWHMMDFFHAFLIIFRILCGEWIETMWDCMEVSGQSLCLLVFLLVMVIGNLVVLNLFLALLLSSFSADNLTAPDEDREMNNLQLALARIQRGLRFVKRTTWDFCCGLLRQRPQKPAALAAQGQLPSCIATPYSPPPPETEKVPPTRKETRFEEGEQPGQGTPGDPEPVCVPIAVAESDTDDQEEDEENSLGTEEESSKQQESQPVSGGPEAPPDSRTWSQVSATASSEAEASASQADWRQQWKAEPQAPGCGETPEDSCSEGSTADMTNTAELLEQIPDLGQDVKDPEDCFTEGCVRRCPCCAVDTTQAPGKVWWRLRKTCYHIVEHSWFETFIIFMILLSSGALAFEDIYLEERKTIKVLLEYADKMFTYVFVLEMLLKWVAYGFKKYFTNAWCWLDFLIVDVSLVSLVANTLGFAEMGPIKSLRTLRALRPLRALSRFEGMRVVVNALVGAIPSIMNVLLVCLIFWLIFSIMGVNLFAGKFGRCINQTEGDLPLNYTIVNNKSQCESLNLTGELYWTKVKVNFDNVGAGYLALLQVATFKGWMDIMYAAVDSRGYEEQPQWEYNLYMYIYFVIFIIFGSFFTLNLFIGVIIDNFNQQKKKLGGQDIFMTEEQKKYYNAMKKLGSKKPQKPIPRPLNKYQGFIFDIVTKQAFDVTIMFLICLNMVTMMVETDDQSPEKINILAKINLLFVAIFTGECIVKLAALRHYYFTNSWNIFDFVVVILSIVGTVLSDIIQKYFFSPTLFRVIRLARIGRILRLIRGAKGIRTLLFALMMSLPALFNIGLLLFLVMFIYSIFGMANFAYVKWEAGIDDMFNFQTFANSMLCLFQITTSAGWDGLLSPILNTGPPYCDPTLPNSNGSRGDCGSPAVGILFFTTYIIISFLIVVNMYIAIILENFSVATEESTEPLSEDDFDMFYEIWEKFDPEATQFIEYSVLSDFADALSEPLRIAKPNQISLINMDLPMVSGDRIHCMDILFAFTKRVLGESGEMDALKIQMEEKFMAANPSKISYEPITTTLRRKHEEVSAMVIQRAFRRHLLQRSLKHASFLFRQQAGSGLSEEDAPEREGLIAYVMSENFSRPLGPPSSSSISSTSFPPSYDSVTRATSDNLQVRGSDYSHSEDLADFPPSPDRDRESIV
Sequence of hERG (Q12809 whole entry): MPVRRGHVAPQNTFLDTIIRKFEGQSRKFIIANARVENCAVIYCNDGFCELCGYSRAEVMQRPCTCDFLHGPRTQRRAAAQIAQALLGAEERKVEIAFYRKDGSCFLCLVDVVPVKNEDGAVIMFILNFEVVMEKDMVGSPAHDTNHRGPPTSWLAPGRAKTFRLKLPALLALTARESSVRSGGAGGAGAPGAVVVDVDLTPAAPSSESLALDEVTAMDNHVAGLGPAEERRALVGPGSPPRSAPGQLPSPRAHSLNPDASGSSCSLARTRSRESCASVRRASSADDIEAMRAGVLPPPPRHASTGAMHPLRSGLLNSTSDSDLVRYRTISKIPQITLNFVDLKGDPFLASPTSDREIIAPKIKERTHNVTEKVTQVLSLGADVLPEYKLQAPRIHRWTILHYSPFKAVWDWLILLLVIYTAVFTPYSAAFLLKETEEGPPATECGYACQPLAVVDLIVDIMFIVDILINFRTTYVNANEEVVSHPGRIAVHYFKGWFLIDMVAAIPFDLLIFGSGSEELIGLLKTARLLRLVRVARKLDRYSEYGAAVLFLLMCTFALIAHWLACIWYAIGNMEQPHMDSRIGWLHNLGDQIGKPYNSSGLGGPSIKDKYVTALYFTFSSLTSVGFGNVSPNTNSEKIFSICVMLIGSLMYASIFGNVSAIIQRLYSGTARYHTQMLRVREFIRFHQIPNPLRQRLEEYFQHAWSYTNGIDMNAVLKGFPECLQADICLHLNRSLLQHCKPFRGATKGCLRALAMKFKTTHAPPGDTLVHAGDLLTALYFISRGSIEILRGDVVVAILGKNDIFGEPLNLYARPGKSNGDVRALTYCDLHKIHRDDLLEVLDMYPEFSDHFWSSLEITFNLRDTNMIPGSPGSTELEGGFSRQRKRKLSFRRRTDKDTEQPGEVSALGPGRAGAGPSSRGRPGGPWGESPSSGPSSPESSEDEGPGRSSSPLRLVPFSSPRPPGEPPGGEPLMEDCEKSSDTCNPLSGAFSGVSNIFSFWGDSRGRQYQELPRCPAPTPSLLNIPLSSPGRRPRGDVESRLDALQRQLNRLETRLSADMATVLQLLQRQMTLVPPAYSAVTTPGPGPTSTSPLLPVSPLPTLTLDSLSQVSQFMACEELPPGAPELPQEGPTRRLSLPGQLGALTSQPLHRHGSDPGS

Compound | CAV1.2 max inhib (Cav1.2; Brown dataset) | NAV1.5 max inhib (Nav1.5) | IC50 (Nav1.5) | also measured
Cc1nc2n(c(=O)c1CCN1CCC(c3noc4cc(F)ccc34)CC1)CCCC2O (stereo not drawn) [paliperidone] | 33.1 | 51.2 | 109 µM | IC50 (Cav1.2; [2]): 194 µM; Ris (TdP risk flag) [1]: 1
CC(C)(C)c1ccc(C(O)CCCN2CCC(C(O)(c3ccccc3)c3ccccc3)CC2)cc1 (stereo not drawn) [terfenadine] | 98 | 99 |  | 
C[C@@H](c1ncncc1F)[C@](O)(Cn1cncn1)c1ccc(F)cc1F [voriconazole] | 40.9 | 15.8 | 1550 µM | IC50 (Cav1.2; [2]): 414 µM
CC(C)N(CCC(C(N)=O)(c1ccccc1)c1ccccn1)C(C)C (stereo not drawn) [disopyrami] |  | 68.9 | 168 µM | CAV1.2 max inhib (Cav1.2): 22.1; CAV1.2 pIC50 (Cav1.2): 2.9843 902; IC50 (Cav1.2): 1040 µM
CCN1CCN(C(=O)N[C@@H](C(=O)N[C@@H]2C(=O)N3[C@@H]2SC(C)(C)[C@@H]3C(=O)O)c2ccccc2)C(=O)C1=O [piperacillin] | 15.9 | 9.7 | 2430 µM | IC50 (Cav1.2; [2]): 1230 µM
Cc1cn([C@@H]2C[C@@H](O)[C@H](CO)O2)c(=O)[nH]c1=O [telbivudine] | 22.1 | 15.1 | 1100 µM | HERG maxInhib (hERG; Brown dataset): 17.4; pIC50 (hERG; [3]): 3.374; IC50 (hERG; [4]): 423 µM; IC50 (Cav1.2; [2]): 714 µM
CCCCc1oc2ccccc2c1C(=O)c1cc(I)c(OCCN(CC)CC)c(I)c1 [amiodaron] |  |  |  | Ris (TdP risk flag) [1]: 1
CN1C(=O)CN=C(c2ccccc2)c2cc(Cl)ccc21 [diazepam] |  |  |  | Ris (TdP risk flag) [1]: 0
Cc1cn(-c2cc(NC(=O)c3ccc(C)c(Nc4nccc(-c5cccnc5)n4)c3)cc(C(F)(F)F)c2)cn1 [nilotinib] | 32.4 |  |  | 
O=C(CCCN1CCC(O)(c2ccc(Cl)cc2)CC1)c1ccc(F)cc1 [haloperidol] | 94 | 96.6 |  | HERG maxInhib (hERG): 89.2
CCOC(=O)N1CCC(=C2c3ccc(Cl)cc3CCc3cccnc32)CC1 [loratadine] |  |  |  | Ris (TdP risk flag) [1]: 0
CCCCN(CCCC)CCC(O)c1cc2c(Cl)cc(Cl)cc2c2cc(C(F)(F)F)ccc12 (stereo not drawn) [halofantrine] |  |  |  | pIC50 (hERG): 6.42
CSc1ccc2c(c1)N(CCC1CCCCN1C)c1ccccc1S2 (stereo not drawn) [thioridazine] | 82.9 | 99.3 |  | 
O=C(O[C@H]1CN2CCC1CC2)N1CCc2ccccc2[C@@H]1c1ccccc1 [solifenacin] | 96.4 | 100 |  | 
CN(CCOc1ccc(NS(C)(=O)=O)cc1)CCc1ccc(NS(C)(=O)=O)cc1 [dofetilide] | 54.2 |  |  | Ris (TdP risk flag) [1]: 1
COc1c(N2C[C@@H]3CCCN[C@@H]3C2)c(F)cc2c(=O)c(C(=O)O)cn(C3CC3)c12 [moxifloxacin] | 53.7 | 17.4 |  | HERG maxInhib (hERG; Brown dataset): 75.9
CCN(CC)CCNC(=O)c1ccc(N)cc1 [procainamide] |  |  |  | HERG maxInhib (hERG; Brown dataset): 50.7
CC(C)(C)NC(=O)[C@@H]1C[C@@H]2CCCC[C@@H]2CN1C[C@@H](O)[C@H](Cc1ccccc1)NC(=O)[C@H](CC(N)=O)NC(=O)c1ccc2ccccc2n1 [saquinavir] |  |  |  | HERG maxInhib (hERG; Brown dataset): 73.1; pIC50 (hERG; [3]): 4.772; IC50 (hERG; [4]): 16.9 µM
CCCCN(CCCC)CCC(O)c1cc2c(Cl)cc(Cl)cc2c2cc(C(F)(F)F)ccc12 (stereo not drawn) [halofantrin] |  | 8.3 | 331 µM | HERG maxInhib (hERG): 77.9; HERG pIC50 (hERG): 6.4202 403; IC50 (hERG): 0.38 µM
CN1CCN(C2=Nc3cc(Cl)ccc3Nc3ccccc32)CC1 [clozapine] | 73.5 | 91.8 | 15.1 µM | HERG maxInhib (hERG; Brown dataset): 97.7
